Reference: ChEMBL document CHEMBL4359843, “Linear and Rationally Designed Stapled Peptides Abrogate TLR4 Pathway and Relieve Inflammatory Symptoms in Rheumatoid Arthritis Rat Model” (J Med Chem, 2019)
The source made the active and inactive calls. The calls are words filed in the database; no cut-off is given here.

How the values were obtained:
RAW264.7 [1] = assay: Cytotoxicity against mouse RAW264.7 cells assessed as reduction in cell viability at 100 uM after 24 hrs by MTT assay; assay type: cell-based; details: raw264.7, 24 h
RAW264.7 [2] = assay: Cytotoxicity against mouse RAW264.7 cells assessed as reduction in cell viability at 20 to 80 uM after 24 hrs by MTT assay; assay type: cell-based; details: raw264.7, 24 h
Toll-like receptor 4 = Toll-like receptor 4 (Homo sapiens, UniProt O00206); assay: Binding affinity to recombinant human TLR4 using phage displayed compound by Phage-ELISA
Chain of Toll-like receptor 4 (O00206 whole entry): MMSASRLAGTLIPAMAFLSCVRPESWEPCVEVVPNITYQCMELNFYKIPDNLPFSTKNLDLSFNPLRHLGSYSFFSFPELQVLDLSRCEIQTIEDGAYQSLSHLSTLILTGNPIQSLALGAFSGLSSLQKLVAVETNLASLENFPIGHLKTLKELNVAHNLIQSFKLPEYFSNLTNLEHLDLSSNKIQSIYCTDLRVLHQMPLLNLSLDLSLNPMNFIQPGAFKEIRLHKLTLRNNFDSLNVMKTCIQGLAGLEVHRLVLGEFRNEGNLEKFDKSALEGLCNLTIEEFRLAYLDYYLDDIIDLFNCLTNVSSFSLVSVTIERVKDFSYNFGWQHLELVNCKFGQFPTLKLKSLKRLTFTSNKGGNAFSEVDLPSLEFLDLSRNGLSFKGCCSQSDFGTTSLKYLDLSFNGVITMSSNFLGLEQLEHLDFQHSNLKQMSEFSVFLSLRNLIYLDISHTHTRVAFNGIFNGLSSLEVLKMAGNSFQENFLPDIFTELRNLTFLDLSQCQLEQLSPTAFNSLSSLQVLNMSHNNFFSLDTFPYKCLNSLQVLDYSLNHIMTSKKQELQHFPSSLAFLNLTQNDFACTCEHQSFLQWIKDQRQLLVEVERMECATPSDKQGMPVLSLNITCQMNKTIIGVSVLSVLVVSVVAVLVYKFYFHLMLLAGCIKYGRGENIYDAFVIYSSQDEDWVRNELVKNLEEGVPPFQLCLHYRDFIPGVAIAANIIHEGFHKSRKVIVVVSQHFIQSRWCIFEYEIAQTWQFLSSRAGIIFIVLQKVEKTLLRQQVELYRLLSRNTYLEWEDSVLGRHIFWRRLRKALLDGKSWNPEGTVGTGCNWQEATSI

| Substance | Activity (RAW264.7 [1]) | Activity (RAW264.7 [2]) | Activity (Toll-like receptor 4) |
| --- | --- | --- | --- |
| H-FGRYFPCLNWLG-OH | Toxic | Non-Toxic | Active |
| H-FWIFSRYPGASA-OH | Toxic | Non-Toxic | Active |
| H-HWWHFHSLRWLG-OH | Toxic | Non-Toxic | Active |
| H-LWWCFHSLRWLG-OH | Toxic | Non-Toxic | Active |
